Results on 10 compounds are retold here after patent US6624154B1, “Compositions and methods for treatment of hyperproliferative diseases” (Bristol-Myers Squibb Company, priority 1999, dated 2003).

Experiment [1] relates to T47D. The experiment can be described thus: Lipid accumulation (Nile Red staining) in T47D breast cancer cells. It is filed as cell-based, human. Particulars: 7 days; for Increase of differentiation by addition of CPT-cAMP over RXR ligand alone: 1 μM RXR ligand plus 100 μM 8CPT-cAMP; for EC50: RXR compound alone, Nile Red.
Procedure: Staining Solution: Stock Solution (1 mg Nile red and 1 ml acetone were mixed thoroughly and stored, chilled and protected from light).
Staining. For Fluorescence Microscope, a drop of dye-glycerol solution was added to a slide and covered with a glass coverslip. After 5 minutes, the slide was viewed by fluorescence microscope, Excitation 450-500 nm, Emission>528 nm. For Flow Cytofluorometry, the medium was aspirated off from cells and washed with PBS two times (serum in the medium drained the dye out of the cells). Then the cells were trypsinized and washed with PBS to get rid of trypsin. The cells were spun down and resuspended in 1 ml PBS (1-2×10^6/ml). The stock dye was added directly to the cells suspension in PBS with 1:100 dilution, and incubated at room temperature for a minimal of 5 minutes, and the samples were analyzed immediately. For Fluorescence Spectra, the medium was removed from 96-well plates and the cells were washed once with PBS. […] Diluted dye in PBS (1:100 from stock) was added to the cells, incubated for 5 minutes, and the plate was read at Excitation 488nm with a 2-nm slit width, emission at 540 nm with a 20-nm slit width.
Cells. Breast cancer cell line T47D was obtained from American Type Culture Collection, Manassas, Va.
Experiment [2] deals with NB4 cells. The experiment can be described thus: NB4 cell maturation (morphology, NBT reduction, CD11c integrin expression). Particulars: for Induction of NB4 cell maturation/differentiation, agent alone: ATRA 1 μM, other agonists 0.2 μM, 8CPT-cAMP 100 μM, 72 h (NBT, morphology), 48 h (CD11c); for NB4 cell maturation in presence of 8CPT-cAMP: co-treatment with PKA agonist 8CPT-cAMP 100 μM. It counts as cell-based, human.
Procedure: Morphological features of NB4 cells in response to treatments (after 72 h). […] Nitroblue tetrazolium enzymatic reduction in retinoid-treated NB4 cells (after 72 h; percent of positive cells).
Cells and cultures. […] Essentially, cultures were established with log phase growing cells at concentration (10^5 ocell per ml) allowing exponential growth of untreated control cultures over 3 days without medium replenishment. […] Cultures were light-protected.
Morphological and functional cell maturation analysis. Cell morphology was analyzed after May-Grünwald staining. […] Morphology analysis and NBT reaction were performed after 72 h of treatment. At least 300 cells were analyzed for each treated culture.
Flow cytometry analysis of CD11c cell surface integrin. […] Briefly, after incubation (48 h), cells were washed in PBS and labeled with an anti-human CD11c FITC mouse monoclonal antibody (Becton-Dickinson). Cells were then washed twice in PBS and fixed in 1% paraformaldehyde/PBS solution. Cells were analyzed using a COULTER flow-cytometer.

The test system of experiment [3] is NB4 cells. The experiment is described as follows: Cytokine expression in NB4 cells by RNAse protection assay. It is filed as cell-based, human. Particulars: for G-CSF expression: agent alone, 0, 24, 48 h.
Procedure: (§1) Modulation of cytokine expression in NB4 cells was assessed by RNAse protection assays. […] For comparison the effect of vitamin D3 (“D3”) was studied also. […] The intact probes run on the same gel are shown on the left (L32 and GAPDH are the invariant internal controls used for calibration) and the positions of the protected fragments are indicated. […] Only the positions of the protected fragments are shown.
(§2) RPA analysis. Total RNA was extracted with the Trizol reagent (Gibco BRL). The ribonuclease protection assay was performed according to the supplier's instructions (Pharmingen, San Diego, Calif.). […] RNA (4 μg) and 6×10^5 cpm of labeled probes were used for hybridization. After RNAse treatments, the protected probes were resolved on a 5% urea-polyacrylamide-bis-acrylamide gel.
The subject of experiment [4] is NB4-R2 cells. The experiment can be described thus: Cytokine expression in NB4-R2 cells by RNAse protection assay. It is filed as cell-based, human.
Procedure: as §1, §2
In experiment [5] the target is T1, RARα-RXRα heterodimer (Homo sapiens, UniProt P10276+P19793).
T1 sequence (P10276 1-462): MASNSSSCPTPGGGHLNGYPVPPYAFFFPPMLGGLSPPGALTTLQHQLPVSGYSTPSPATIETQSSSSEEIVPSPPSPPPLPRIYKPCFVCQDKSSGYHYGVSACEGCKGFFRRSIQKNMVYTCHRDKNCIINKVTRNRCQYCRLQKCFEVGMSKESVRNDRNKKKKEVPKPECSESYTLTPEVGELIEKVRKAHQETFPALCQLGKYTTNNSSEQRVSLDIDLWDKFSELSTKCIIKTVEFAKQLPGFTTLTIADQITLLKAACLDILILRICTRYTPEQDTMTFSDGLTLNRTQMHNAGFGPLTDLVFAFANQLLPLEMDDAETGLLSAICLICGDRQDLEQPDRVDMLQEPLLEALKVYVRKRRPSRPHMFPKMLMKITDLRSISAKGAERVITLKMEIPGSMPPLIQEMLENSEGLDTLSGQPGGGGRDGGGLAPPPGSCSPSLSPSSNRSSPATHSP
T1 sequence (P19793 1-462): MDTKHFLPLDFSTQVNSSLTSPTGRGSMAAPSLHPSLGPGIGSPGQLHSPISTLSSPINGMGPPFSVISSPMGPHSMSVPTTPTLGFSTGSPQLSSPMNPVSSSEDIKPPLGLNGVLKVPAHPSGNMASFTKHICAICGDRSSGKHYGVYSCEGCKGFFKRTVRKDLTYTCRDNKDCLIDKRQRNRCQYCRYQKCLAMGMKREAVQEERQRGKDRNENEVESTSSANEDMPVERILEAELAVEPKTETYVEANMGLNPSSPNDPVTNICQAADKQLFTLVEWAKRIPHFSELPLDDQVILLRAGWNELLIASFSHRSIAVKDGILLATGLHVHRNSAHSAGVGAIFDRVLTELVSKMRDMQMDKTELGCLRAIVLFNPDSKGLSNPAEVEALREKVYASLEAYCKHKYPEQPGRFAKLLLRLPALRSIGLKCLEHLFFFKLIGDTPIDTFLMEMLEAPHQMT
The experiment is described as follows: Transient transfection, RARα-RXRα heterodimer activity on DR5-tk-CAT reporter.

One may read the EC50 as the midpoint of the concentration-response curve. Higher therefore signals weaker potency. On to `C=C(c1ccc(C(=O)O)cc1)c1cc2c(cc1C)C(C)(C)CCC2(C)C` [bexarotene], for which, in experiment [1], the “Increase of differentiation by addition of CPT-cAMP over RXR ligand alone” value is 20%. This compound also had an EC50 in experiment [1] (Homo sapiens, T47D, 168 h) of 62 nM.
Turning to `Nc1ncnc2c1nc(Sc1ccc(Cl)cc1)n2[C@@H]1O[C@@H]2COP(=O)([O-])O[C@H]2[C@H]1O.[Na+]` [Compound 8CPT-cAMP, 8-(4-Chlorophenylthio)-adenosine-3′,5′-cyclic monophosphate, sodium salt], the “Induction of NB4 cell maturation/differentiation, agent alone” value in experiment [2] is given as “did not exhibit any differentiating activity”. For the same compound, in experiment [1] (100 μM), the “Lipid accumulation/differentiation, CPT-cAMP alone” value is given as “No effect”.
On to `CC1=C(/C=C/C(C)=C/C=C/C(C)=C/C(=O)O)C(C)(C)CCC1` [ATRA, all-trans retinoic acid], for which the “Induction of NB4 cell maturation/differentiation, agent alone” value in experiment [2] was “induce maturation”. In addition, in experiment [3] (agent alone), the “IL8 and MCPI expression” value is “induced”; the “M-CSF and IP10 expression” value was “induced”. Further, the G-CSF expression result in experiment [3] is on record as “incapable of stimulating G-CSF expression”. For the same compound, the “IP 10, MCP1 or M-CSF expression in resistant cells” value in experiment [4] is listed as “unable to induce”.
As to `CN1c2ccc([N+](=O)[O-])cc2N=C(c2ccc(C(=O)O)cc2)c2cc3c(cc21)C(C)(C)CCC3(C)C` [HX531], the “NB4 cell maturation in presence of 8CPT-cAMP” value in experiment [2] is “No crosstalk”.
In the case of `CC1(C)CCC(C)(C)c2cc(C3(c4ccc(C(=O)O)cc4)OCCO3)ccc21` [SR11237], the “Transactivation of DR5-based reporter by coexpressed RAR and RXR in presence of the PKA agonist” value in experiment [5] (with 8CPT-cAMP) is recorded as “did not observe any SR11237-induced transactivation”. Moreover, in experiment [2], the “Induction of NB4 cell maturation/differentiation, agent alone” value was “completely inactive” and the “NB4 cell maturation in presence of 8CPT-cAMP” value was “induced full maturation”. Moreover, the “Factor of synergy, G-CSF expression” value in experiment [3] (SR11237 with 8CPT-cAMP) is recorded as over 50 fold. For the same compound, the G-CSF expression entry in experiment [3] was “does not affect G-CSF expression”. The “SCF, IL8 and MCPI expression” value in experiment [3] (agent on its own) was “induced”. In addition, in experiment [1], the “Increase of differentiation by addition of CPT-cAMP over RXR ligand alone” value amounted to 20% and the midpoint of the response, the EC50, lay at 110 nM.
In the case of `CC1(C)C(=O)C(C)(C)c2cc(C(=O)Nc3ccc(C(=O)O)cc3)ccc21` [Compound I, 4-[[(2,3-Dihydro-1,1,3,3-tetramethyl-2-oxo-1H-inden-5-yl)carbonyl]amino]benzoic acid], in experiment [2], the “Induction of NB4 cell maturation/differentiation, agent alone” value is on record as “induce maturation”. Also, the “Growth of NB4 cells” value in experiment [2] (agent alone) is listed as “growth inhibited”.
Consider `CC1(C)CC=C(c2cnc3ccccc3c2)c2cc(C(=O)Nc3ccc(C(=O)O)cc3)ccc21` [Compound II], for which, in experiment [2] (NB4 cells, antagonist 2 μM), the “Effect on Compound I-induced differentiation” value is “abrogated” and the “Effect on maturation induced by 9-cis RA” value was “decreased dramatically”. Further, in experiment [2] (antagonist 2 μM), the “Inhibition of NB4 maturation induced by SR11237 plus 8CPT-cAMP” value is given as “not inhibited”.
For `C=C(c1ccc(C(=O)O)cc1)c1cc2c(cc1C)C(C)(C)CC=C2C(C)C` [Compound V, 4-[1-[5,6-Dihydro-3,5,5-trimethyl-8-(1-methylethyl)-2-naphthalenyl]ethenyl]benzoic acid], in experiment [5] (agent alone), the “Activity with RAR-RXR heterodimers on a DR5-based reporter” value was “nearly inactive”. Further, the “Effect on ATRA-induced transactivation of DR5-based reporter” value in experiment [5] (with ATRA) was “synergized with”. In experiment [2], the “Induction of NB4 cell maturation/differentiation, agent alone” value was “did not exert any differentiative effect” and the “NB4 cell maturation in presence of 8CPT-cAMP” value is recorded as “induced maturation with a potency similar to 9-cis RA”.
As to `CC1(C)CC=C(c2ccc(-c3ccccc3)cc2)c2cc(/C=C/c3ccc(C(=O)O)cc3)ccc21` [Compound VI], the “Effect on Compound I-induced differentiation” value in experiment [2] (NB4 cells, antagonist 2 μM) is recorded as “abrogated”. The “Inhibition of NB4 maturation induced by SR11237 plus 8CPT-cAMP” value in experiment [2] (antagonist 2 μM) is “not inhibited”.
With `C=C1CC[C@H](O)C/C1=C/C=C1\CCC[C@]2(C)[C@@H]([C@H](C)CCCC(C)C)CC[C@@H]12` [vitamin D3], in experiment [2], the “Induction of NB4 cell maturation/differentiation, agent alone” value is “inactive on its own” and the “NB4 cell maturation in presence of 8CPT-cAMP” value is given as “moderate granulocytic maturation”. For the same compound, the “Granulocytic maturation relative to the effect of SR11237 in presence of the PKA agonist” value in experiment [2] (uM concentration, with 8CPT-cAMP) is reported as “less than 20%”.
